From publication PMC11850406, “Large-scale screening of HIV-1 T-cell epitopes restricted by 12 prevalent HLA-A allotypes in Northeast Asia and universal detection of HIV-1-specific CD8^+ T cells” (Frontiers in Microbiology, 2025)
Like-named read-outs stand apart in the source and are kept apart here. Where no end group is shown, it is not given here.

What was measured:
HLA-A0201 = biological target: T1, HLA-A0201 (Homo sapiens, UniProt P04439, D140Y/D185E/D98H/E176V/E277Q/G131W/G231S/I119V/I121R/I166T/I218V/L300P/L318F/N151K/N90K/P208A/P217A/Q86G/Q94H/R138H/R169H/T345S); assay: cell-based; type: binding; conditions: for inhibition at 5 µM / inhibition at 15 µM / 5-μM inhibition (%) / 15-μM inhibition (%): A0201, 24 h, 4°C, flow cytometry; for inhibition at 5 µM / 5-μM inhibition (%): peptide 5 μM vs FITC-labeled reference peptide 300 nM; for inhibition at 5 µM: read-out: 5-μM inhibition (%); for inhibition at 15 µM / 15-μM inhibition (%): peptide 15 μM vs FITC-labeled reference peptide 300 nM; for inhibition at 15 µM: read-out: 15-μM inhibition (%)
T1 construct: expressed in transfected cells; host or cells: HMy2.CIR

HLA-A0207 = biological target: T2, HLA-A0207 (Homo sapiens, UniProt P04439, D140Y/D185E/D98H/E176V/E277Q/G131W/G231S/I119V/I121R/I166T/I218V/L300P/L318F/N151K/N90K/P208A/P217A/Q86G/Q94H/R138H/R169H/T345S/Y123C); assay: Peptide competitive binding assay, HMy2.CIR cells expressing A0207; conditions: 24 h, 4°C, flow cytometry; for inhibition at 5 µM / 5-μM inhibition (%): peptide 5 μM vs FITC-labeled reference peptide 300 nM; for inhibition at 15 µM / 15-μM inhibition (%): peptide 15 μM vs FITC-labeled reference peptide 300 nM
T2 construct: expressed in transfected cells; host or cells: HMy2.CIR

HLA-A3101 = biological target: T3, HLA-A3101 (Homo sapiens, UniProt P04439, A270S/D185E/E176V/E277Q/F33T/G231S/G80R/H175R/I121M/I218V/I322F/K168Q/L300P/L318F/M331R/P217A/Q94H/R138Q/T323A/T345S/T97I/V358M); assay: Peptide competitive binding assay, HMy2.CIR cells expressing A3101; conditions: for IC50: read-out: Affinity; for inhibition at 5 µM / 5-μM inhibition (%): peptide 5 μM vs FITC-labeled reference peptide 300 nM; for inhibition at 5 µM / inhibition at 15 µM / 5-μM inhibition (%) / 15-μM inhibition (%): 24 h, 4°C, flow cytometry; for inhibition at 15 µM / 15-μM inhibition (%): peptide 15 μM vs FITC-labeled reference peptide 300 nM
T3 construct: expressed in transfected cells; host or cells: HMy2.CIR

HLA-A1102 = HLA-A1102 (Homo sapiens, UniProt P04439, A114D/D185E/E176A/E43K/F33Y/L180Q/S129P/T187R); assay: cell-based; type: binding; conditions: for inhibition at 5 µM: read-out: 5-μM inhibition (%); for inhibition at 15 µM: read-out: 15-μM inhibition (%)
HLA-A3001 = biological target: T4, HLA-A3001 (Homo sapiens, UniProt P04439, D140H/D185E/E176W/F33S/G80R/H175R/K168Q/R138E/R41S); assay: cell-based; type: binding
T4 construct: expressed in transfected cells; host or cells: HMy2.CIR

HLA-A1101 = biological target: T5, HLA-A1101 (Homo sapiens, UniProt P04439, A114D/D185E/E176A/F33Y/L180Q/S129P/T187R); assay: cell-based; type: binding; conditions: for inhibition at 5 µM / inhibition at 15 µM: A1101, 24 h, 4°C, flow cytometry; for inhibition at 5 µM: peptide 5 μM vs FITC-labeled reference peptide 300 nM, read-out: 5-μM inhibition (%); for inhibition at 15 µM: peptide 15 μM vs FITC-labeled reference peptide 300 nM, read-out: 15-μM inhibition (%)
T5 construct: expressed in transfected cells; host or cells: HMy2.CIR

HLA-A0203 = biological target: T6, HLA-A0203 (Homo sapiens, UniProt P04439, A173T/D140Y/D185E/D98H/E277Q/G131W/G231S/I119V/I121R/I166T/I218V/L180W/L300P/L318F/N151K/N90K/P208A/P217A/Q86G/Q94H/R138H/R169H/T345S); assay: cell-based; type: binding; conditions: A0203, 24 h, 4°C, flow cytometry
T6 construct: expressed in transfected cells; host or cells: HMy2.CIR

[1] = A1102, peptide 5 μM vs FITC-labeled reference peptide 300 nM, 24 h, 4°C, flow cytometry
[2] = A1102, peptide 15 μM vs FITC-labeled reference peptide 300 nM, 24 h, 4°C, flow cytometry
[3] = A3001, peptide 5 μM vs FITC-labeled reference peptide 300 nM, 24 h, 4°C, flow cytometry
[4] = A3001, peptide 15 μM vs FITC-labeled reference peptide 300 nM, 24 h, 4°C, flow cytometry

Work on QLPEKDSWTV [Peptide P14] yielded an IC50 (HLA-A0201) of 5 to 15 µM, an inhibition at 5 µM (HLA-A0201) of 27.6% and an inhibition at 15 µM (HLA-A0201) of 81.5%. It also gave an inhibition at 5 µM (HLA-A0207) of 0% and an inhibition at 15 µM (HLA-A0207) of 8.35%.
In the case of QLTEVVQKV [Peptide P80], the “5-μM inhibition (%)” value (HLA-A0207) is reported as 20.67% and the “15-μM inhibition (%)” value (HLA-A0207) is reported as 25.60%.
Work on RAKRRVVER [Peptide P98] yielded an IC50 (HLA-A3101; A3101, class from inhibition at 5 and 15 μM of FITC-labeled reference peptide binding) of 5 to 15 µM, an inhibition at 5 µM (HLA-A3101; A3101) of 47.9% and an inhibition at 15 µM (HLA-A3101; A3101) of 82%.
With RANSPTSRK [Peptide P88] the “5-μM inhibition (%)” value (HLA-A1102; [1]) was 0.00% and the “15-μM inhibition (%)” value (HLA-A1102; [2]) was 0.35%.
For RIKCFNCGR [Peptide P96], the “5-μM inhibition (%)” value (HLA-A3101; A3101) was 0.00% and the “15-μM inhibition (%)” value (HLA-A3101; A3101) was 0.00%.
For RLRGFILVA [Peptide P92], the “5-μM inhibition (%)” value (HLA-A3001; [3]) was 18.53% and the “15-μM inhibition (%)” value (HLA-A3001; [4]) was 39.48%.
RLRPGGRKK [Peptide P89] was tested, and the “5-μM inhibition (%)” value (HLA-A3001; [3]) was 27.40% and the “15-μM inhibition (%)” value (HLA-A3001; [4]) was 39.48%.
RSNFKGSKR [Peptide P97] was tested, and the inhibition at 5 µM (HLA-A3101; A3101) was 66.6%, the inhibition at 15 µM (HLA-A3101; A3101) was 92.9% and the IC50 (HLA-A3101) was < 5 µM.
In the case of RVRQGYSPL [Peptide P91], the IC50 (HLA-A3001) is reported as < 5 µM, the inhibition at 5 µM (HLA-A3001; A3001, peptide 5 μM vs FITC-labeled reference peptide 300 nM, 24 h, 4°C, flow cytometry, read-out: 5-μM inhibition (%)) is reported as 92.4% and the inhibition at 15 µM (HLA-A3001; A3001, peptide 15 μM vs FITC-labeled reference peptide 300 nM, 24 h, 4°C, flow cytometry, read-out: 15-μM inhibition (%)) is reported as 100%.
SILDIRQGPK [Peptide P33] was tested, and the IC50 (HLA-A1101) was < 5 µM, the inhibition at 5 µM (HLA-A1101) was 83.2% and the inhibition at 15 µM (HLA-A1101) was 93.1%. It also gave an IC50 (HLA-A1102) of 5 to 15 µM, an inhibition at 5 µM (HLA-A1102; [1]) of 16.8% and an inhibition at 15 µM (HLA-A1102; [2]) of 50.6%.
In the case of SLFNTVATL [Peptide P10], the “5-μM inhibition (%)” value (HLA-A0201) is reported as 15.75%, the “15-μM inhibition (%)” value (HLA-A0201) is reported as 31.36% and the “5-μM inhibition (%)” value (HLA-A0207) is reported as 0.00%. For the same sequence, the “15-μM inhibition (%)” value (HLA-A0207) was 7.34%, the “5-μM inhibition (%)” value (HLA-A0203; peptide 5 μM vs FITC-labeled reference peptide 300 nM) was 20.39% and the “15-μM inhibition (%)” value (HLA-A0203; peptide 15 μM vs FITC-labeled reference peptide 300 nM) was 42.50%.
TSLPKQEQK [Peptide P31] was tested, and the IC50 (HLA-A1101) was < 5 µM, the inhibition at 5 µM (HLA-A1101) was 75.2% and the inhibition at 15 µM (HLA-A1101) was 86.5%. The inhibition at 5 µM (HLA-A1102; [1]) was 4.16% and the inhibition at 15 µM (HLA-A1102; [2]) was 18%.
VLDVGDAYF [Peptide P81] was tested, and the “5-μM inhibition (%)” value (HLA-A0207) was 0.00% and the “15-μM inhibition (%)” value (HLA-A0207) was 23.16%.
In the case of VTGIRKNYR [Peptide P99], the “5-μM inhibition (%)” value (HLA-A3101; A3101) is reported as 0.00% and the “15-μM inhibition (%)” value (HLA-A3101; A3101) is reported as 15.00%.
With YLKDQKFLGL [Peptide P78] the “5-μM inhibition (%)” value (HLA-A0207) was 11.50% and the “15-μM inhibition (%)” value (HLA-A0207) was 30.40%.
With YMEAEVIPA [Peptide P82] the “5-μM inhibition (%)” value (HLA-A0207) was 13.67% and the “15-μM inhibition (%)” value (HLA-A0207) was 30.79%.
For YQLEKDPIV [Peptide P11], the “5-μM inhibition (%)” value (HLA-A0201) was 5.87%, the “15-μM inhibition (%)” value (HLA-A0201) was 28.56% and the “5-μM inhibition (%)” value (HLA-A0207) was 5.57%. The “15-μM inhibition (%)” value (HLA-A0207) was 12.66%.
With YQYMDDLYV [Peptide P15] the IC50 (HLA-A0201) was < 5 µM, the inhibition at 5 µM (HLA-A0201) was 56.5% and the inhibition at 15 µM (HLA-A0201) was 83%. For the same sequence, the inhibition at 5 µM (HLA-A0207) was 20.1% and the inhibition at 15 µM (HLA-A0207) was 27.6%.
In the case of YVDRFFKTL [Peptide P76], the “5-μM inhibition (%)” value (HLA-A0207) is reported as 11.90% and the “15-μM inhibition (%)” value (HLA-A0207) is reported as 30.60%.
